From patent publication US20130281465A1, “PYRAZOLE DERIVATIVE” (TAISHO PHARMACEUTICAL CO., LTD., priority 2010, published 2013)

Columns and labels:
[1] = biological target: T1, human orexin type 1 receptor (hOX1R) (Homo sapiens, UniProt O43613); experiment: Orexin receptor antagonistic activity, intracellular Ca2+ fluorescence (FDSS) in CHO cells expressing hOX1R; assay type: cell-based; details: CHO cells forced to express hOX1R; orexin-A analogue peptide ligand 300 pM; Fluo-4 maximum fluorescence; read-out: IC50 value OX1R
T1 construct: expressed in transfected cells; host or cells: Chinese hamster ovary (CHO) cells
T1 sequence (O43613 1-425): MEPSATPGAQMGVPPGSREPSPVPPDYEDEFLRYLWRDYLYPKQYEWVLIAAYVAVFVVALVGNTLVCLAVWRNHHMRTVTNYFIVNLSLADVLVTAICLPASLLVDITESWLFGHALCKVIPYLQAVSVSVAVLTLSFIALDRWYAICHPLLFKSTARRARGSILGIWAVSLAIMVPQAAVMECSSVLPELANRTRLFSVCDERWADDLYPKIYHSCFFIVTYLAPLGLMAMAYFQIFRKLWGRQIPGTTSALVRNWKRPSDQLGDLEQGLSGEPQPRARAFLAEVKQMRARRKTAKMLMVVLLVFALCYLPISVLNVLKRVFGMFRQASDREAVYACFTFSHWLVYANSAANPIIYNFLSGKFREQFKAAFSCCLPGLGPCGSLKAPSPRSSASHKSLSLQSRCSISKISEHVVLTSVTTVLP
Description: (§1) The antagonistic activity of each test compound against human orexin type 1 receptor (hOX1R) and orexin type 2 receptor (hOX2R) was performed as described in the literature with a modification (Toshikatsu Okumura et al., Biochemical and Biophysical Research Communications 280, 976-981, 2001). Chinese hamster ovary (CHO) cells forced to express hOX1R or hOX2R were seeded at 20,000 cells/well on a 96 well Black clear bottom plates (Nunc) and cultured for 16 hours under conditions of 37° C. and 5% CO2 using a Ham's F-12 medium containing 0.1 mM MEM non-essential amino acids, 0.5 mg/ml G418, and 10% fetal bovine serum (all from Invitrogen Corp.). After removal of the medium, 100 μL of the assay buffer (25 mM HEPES (Dojindo Laboratories), Hanks' balanced salt solution (Invitrogen Corp.), 0.1% bovine serum albumin, 2.5 mM probenecid, 200 μg/ml Amaranth (all from Sigma-Aldrich Corp.), pH 7.4) containing 0.5 μM Fluo-4AM ester (Dojindo Laboratories) was added thereto, and the cells were incubated for 60 minutes under conditions of 37° C. and 5% CO2. After removal of the buffer solution for assay containing Fluo-4AM ester, the test compound was dissolved at a concentration of 10 mM in dimethyl sulfoxide and diluted with the assay buffer, and 150 μL of the diluted solution was then added to each wells, which were then incubated for 30 minutes.
(§2) A peptide (Pyr-[…]11e-Leu-Thr-Leu-NH2; Peptide Institute, Inc.) substituted 2 amino acids of human orexin-A was diluted with the assay buffer to 300 pM (final concentration for hOX1R) or 3 nM (final concentration for hOX2R). 50 μL of this ligand solution was added thereto to start reaction. During the reaction, the fluorescence value of each well was measured every one second for 3 minutes using Functional Drug Screening System (FDSS; manufactured by Hamamatsu Photonics K.K.), and antagonistic activity was determined with the maximum fluorescence value as an index for intracellular Ca^2+ concentration. The antagonistic activity of the test compound was calculated with the fluorescence value of a well supplemented with only a dilution buffer solution as 100% and the fluorescence value of a well supplemented with a buffer solution containing neither the ligand nor the compound as 0%, and determined in terms of 50% inhibitory concentration (IC50 value) from fluorescence values derived from the test compound added at varying concentrations.

[2] = biological target: T2, orexin type 2 receptor (hOX2R) (Homo sapiens, UniProt O43614); experiment: Orexin receptor antagonistic activity, intracellular Ca2+ fluorescence (FDSS) in CHO cells expressing hOX2R; assay type: cell-based; details: CHO cells forced to express hOX2R; orexin-A analogue peptide ligand 3 nM; Fluo-4 maximum fluorescence; read-out: IC50 value OX2R
T2 construct: expressed in transfected cells; host or cells: Chinese hamster ovary (CHO) cells
T2 sequence (O43614 1-444): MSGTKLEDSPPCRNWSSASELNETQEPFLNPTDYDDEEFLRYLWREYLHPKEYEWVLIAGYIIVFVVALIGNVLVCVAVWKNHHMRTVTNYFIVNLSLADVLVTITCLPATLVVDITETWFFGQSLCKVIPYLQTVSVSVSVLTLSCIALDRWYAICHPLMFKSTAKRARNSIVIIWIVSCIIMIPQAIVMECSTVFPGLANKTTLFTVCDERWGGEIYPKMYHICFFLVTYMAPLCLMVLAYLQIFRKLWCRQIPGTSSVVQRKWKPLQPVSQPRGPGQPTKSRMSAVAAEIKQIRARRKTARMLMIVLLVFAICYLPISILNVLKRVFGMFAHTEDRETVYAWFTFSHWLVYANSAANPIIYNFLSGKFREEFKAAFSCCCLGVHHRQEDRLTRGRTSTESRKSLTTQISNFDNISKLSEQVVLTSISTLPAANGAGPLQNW
Description: as §1, §2

Row | Structure (SMILES) | IC50 [1] | IC50 [2]
1 | CCN(CCn1ccc(-c2ccc(F)cn2)n1)C(=O)c1cc(C)ccc1-n1nccn1 [Example 19, N-ethyl-N-{2-[3-(5-fluoropyridin-2-yl)-1H-pyrazol-1-yl]ethyl}-5-methyl-2-(2H-1,2,3-triazol-2-yl)benzamide] | 1.5 nM | 3.9 nM
2 | Cc1ccc(-n2nccn2)c(C(=O)N(C)CCn2ccc(-c3ccc(F)cn3)n2)c1 [Example 17, N-{2-[3-(5-fluoropyridin-2-yl)-1H-pyrazol-1-yl]ethyl}-N,5-dimethyl-2-(2H-1,2,3-triazol-2-yl)benzamide] | 5.6 nM | 22.8 nM
3 | CCN(CCn1cc(-c2ccc(F)cn2)cn1)C(=O)c1cc(Cl)ccc1-n1nccn1 [Example 55, 5-Chloro-N-ethyl-N-{2-[4-(5-fluoropyridin-2-yl)-1H-pyrazol-1-yl]ethyl}-2-(2H-1,2,3-triazol-2-yl)benzamide] | 1.6 nM | 2.3 nM
4 | Cc1ccc(-n2nccn2)c(C(=O)N(CCn2ccc(-c3ccc(F)cn3)n2)C2CC2)c1 [Example 30, N-cyclopropyl-N-{2-[3-(5-fluoropyridin-2-yl)-1H-pyrazol-1-yl]ethyl}-5-methyl-2-(2H-1,2,3-triazol-2-yl)benzamide] | 1.3 nM | 1.8 nM
5 | Cc1ccc(-n2nccn2)c(C(=O)N(CCn2cc(-c3ccc(F)cc3)cn2)CC2CC2)c1 [Example 6, N-(cyclopropylmethyl)-N-{2-[4-(4-fluorophenyl)-1H-pyrazol-1-yl]ethyl}-5-methyl-2-(2H-1,2,3-triazol-2-yl)benzamide] | 50.1 nM | 2.6 nM
6 | CCN(CCn1ccc(-c2ccc(F)cn2)n1)C(=O)c1c(F)cccc1-c1ncccn1 [Example 46, N-ethyl-2-fluoro-N-{2-[3-(5-fluoropyridin-2-yl)-1H-pyrazol-1-yl]ethyl}-6-(pyrimidin-2-yl)benzamide] | 92.5 nM | 149 nM

More lines, in order of falling IC50 [1], values ahead:

Row | IC50 [1] | IC50 [2] | Structure (SMILES)
7 | 76 nM | 132 nM | CN(CCn1ccc(-c2ccc(F)cn2)n1)C(=O)c1cc(F)ccc1-n1nccn1 [Example 23-2, N-methyl-N-{2-[3-(5-fluoropyridin-2-yl)-1H-pyrazol-1-yl]ethyl}-5-fluoro-2-(2H-1,2,3-triazol-2-yl)benzamide]
8 | 7.2 nM | 12.2 nM | CCN(CCn1ccc(-c2ccc(F)cn2)n1)C(=O)c1cc(F)ccc1-n1nccn1 [Example 24, N-ethyl-N-{2-[3-(5-fluoropyridin-2-yl)-1H-pyrazol-1-yl]ethyl}-5-fluoro-2-(2H-1,2,3-triazol-2-yl)benzamide]
9 | 1.9 nM | 5.6 nM | CCN(CCn1ccc(-c2ccc(F)c(F)c2)n1)C(=O)c1ccccc1-c1ncccn1 [Example 59, N-{2-[3-(3,4-difluorophenyl)-1H-pyrazol-1-yl]ethyl}-N-ethyl-2-(pyrimidin-2-yl)benzamide]
10 | 1.8 nM | 3.5 nM | CCN(CCn1ccc(-c2ccc(F)cn2)n1)C(=O)c1cc(Cl)ccc1-c1ncccn1 [Example 43, N-ethyl-5-chloro-N-{2-[3-(5-fluoropyridin-2-yl)-1H-pyrazol-1-yl]ethyl}-2-(pyrimidin-2-yl)benzamide]
11 | 1.2 nM | 4 nM | Cc1ccc(-n2nccn2)c(C(=O)N(CCn2ccc(-c3ccc(F)cc3)n2)CC2CC2)c1 [Example 28, N-(cyclopropylmethyl)-N-{2-[3-(4-fluorophenyl)-1H-pyrazol-1-yl]ethyl}-5-methyl-2-(2H-1,2,3-triazol-2-yl)benzamide]
12 | 0.9 nM | 8.8 nM | Cc1ccc(-n2nccn2)c(C(=O)N(C)CCn2ccc(-c3ccc(F)cc3)n2)c1 [Example 20-2, N-{2-[3-(4-fluorophenyl)-1H-pyrazol-1-yl]ethyl}-N,5-dimethyl-2-(2H-1,2,3-triazol-2-yl)benzamide]
